In PubChem BioAssay (NCI):
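Five concentrations, 48 hours, 96-well plates. GI50 is the concentration that inhibits growth by half. The concentration for full growth arrest is given as TGI.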 Where a SMILES comes first, the peptide text is derived from it. [ ]: non-standard residue; d: D form. The star is where a group is joined. ξ: configuration not given here. X6 = FC(F)(F)c1cc(NC(=S)*)cc(C(F)(F)F)c1; ξF = NC(Cc1ccccc1)C(=O)O

What was measured:
Test in all cases: NCI-60 cell line screen, 48 h
NCI/ADR-RES ovarian = system: NCI/ADR-RES ovarian
HS 578T breast = system: HS 578T breast
MCF7 breast = system: MCF7 breast
MDA-MB-231 breast = system: MDA-MB-231 breast
DU-145 prostate = system: DU-145 prostate

| SMILES | GI50 (NCI/ADR-RES ovarian) [µM] | TGI (NCI/ADR-RES ovarian) [µM] | GI50 (HS 578T breast) [µM] | TGI (HS 578T breast) [µM] | GI50 (MCF7 breast) [µM] | TGI (MCF7 breast) [µM] | GI50 (MDA-MB-231 breast) [µM] | TGI (MDA-MB-231 breast) [µM] | GI50 (DU-145 prostate) [µM] | TGI (DU-145 prostate) [µM] |
| --- | --- | --- | --- | --- | --- | --- | --- | --- | --- | --- |
| COc1cc(CNc2cnc3cc(N)cc(N)c3n2)cc(OC)c1 | 34.3 | > 100 | 17 | 52 | 24.5 | > 100 | 5.58 | 20.4 | 41.4 | > 100 |
| O=C1C(Cl)=C(Nc2cccc(Cl)c2)C(=O)N1Cc1ccc(Cl)cc1Cl | 0.904 | 25 | 1.23 | 22.9 | 1.24 | 41.5 | 0.176 | 12.9 | 5.87 | 18.2 |
| COC(=O)[C@@H](NC(=O)CNC(=O)[C@H]1CCCN1C(=O)C(Cc1ccccc1)NC(=S)Nc1cc(C(F)(F)F)cc(C(F)(F)F)c1)C(C)C (stereo partly specified) (X6-[ξF][dP]GV-OMe) | 3.47 | 43.3 | 2.47 | 8.49 | 2.86 | 11.3 | 1.48 | 3.14 | 4.85 | 20.8 |
| Cn1cc(C2=C(c3cn(C)c4ncccc34)C(=O)NC2=O)c2ccccc21 | 11.5 | > 25 | 4.17 | > 19.1 | 7.66 | > 25 | 12.2 | > 25 | 13.1 | > 25 |
| CCCCOC(=O)C1OC(O[C@H]2CCC3(C)C(CCC4(C)C3CC=C3C5CC(C)(C)CCC5(C(=O)O)CC[C@]34C)C2(C)C)C(OC2OC(CO)C(O)C(O)C2O)C(OC2OC(CO)C(O)C(O)C2O)C1O (stereo partly specified) | 74 | > 100 | 38 | > 100 | 38.4 | > 100 | 14.5 | 32.2 | – | – |
| CCCCCN(CCCCC)CCCNc1c2c(nc3ccc(Cl)cc13)CCCC2 | 2.15 | 6.11 | – | – | 2.46 | 8.34 | 2.76 | 13.1 | 3.71 | 13.4 |
| CC1(C)CCc2c(c3c(c4c(=O)c(O)c(-c5ccc(O)cc5)oc24)OC(C)(C)CC3)O1 | 55.7 | > 100 | 69.8 | > 100 | > 100 | > 100 | 28.3 | 84.1 | 85.1 | > 100 |
| Clc1ccc2c(NCCCCNc3nc(N4CCCCC4)nc4ccccc34)ccnc2c1 | 2.68 | 9.18 | 1.82 | 4.6 | 2.52 | 10.8 | 1.75 | 4.28 | 3.8 | 15.2 |
| COc1cc(-c2nn(-c3ccc(NC(=O)c4ccc(Cl)c(C(F)(F)F)c4)cc3)cc2-c2ccncc2)ccc1Cl | 3.63 | > 100 | 1.23 | 4.03 | 3.05 | > 100 | 1.6 | 6.09 | 4.59 | > 100 |
| O=C(Nc1ccccc1OC(F)(F)F)Nc1n[nH]c2ccccc12 | 44.2 | > 100 | 19.4 | > 100 | 1.75 | > 100 | 17.9 | > 100 | 51.7 | > 100 |
